This is an account of results in patent publication US10336792B2, “Antimicrobial peptide dendrimers” (priority 2014, dated 2019).

Format in all cases: cell-based
The test system of test [1] is Pseudomonas aeruginosa (strain PA01). Nature of the test: microbe, parasite or virus in culture. As to conditions: strain. An outline of the steps: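 Broth microdilution MIC against P. aeruginosa PAO1 in LB: peptides serially diluted by ⅔, bacteria added at OD600 0.001 and incubated 18–24 h at 37 °C. MTT added; MIC is the lowest concentration preventing visible growth.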

For test [2], the system named is Bacillus subtilis (strain BR151). As to conditions: strain BR151. In outline:
(§1)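 Broth microdilution MIC in LB; overnight cultures diluted to OD600 0.001 and mixed 1:1 with ⅔-serially diluted samples (stock 1 mg mL^−1 in H2O), 37° C for 18-24 h. MTT (0.1%) added; MIC read by eye as lowest concentration inhibiting visible growth (yellow).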

Test [3] deals with Escherichia coli (strain DH5α). Conditions: DH5α. In outline:
as §1

≈ marks a conversion by molar mass, not a printed value. Positions of bridges follow the written chain, without caps; N, C: chain ends. Residues, ends and D or L forms follow the SMILES beside them. Groups on a side chain read outwards from the residue. Chains are numbered I, II in the order given. *: point of attachment. Octanoyl = CCCCCCCC(=O)*

Consider `NCCCC[C@H](NC(=O)[C@H](CCCCNC(=O)[C@H](Cc1ccccc1)NC(=O)[C@H](CCCCN)NC(=O)[C@H](CCCCNC(=O)[C@H](Cc1ccccc1)NC(=O)[C@H](CCCCN)NC(=O)[C@H](CCCCNC(=O)[C@H](Cc1ccccc1)NC(=O)[C@@H](N)CCCCN)NC(=O)[C@H](Cc1ccccc1)NC(=O)[C@@H](N)CCCCN)NC(=O)[C@H](Cc1ccccc1)NC(=O)[C@H](CCCCN)NC(=O)[C@H](CCCCNC(=O)[C@H](Cc1ccccc1)NC(=O)[C@@H](N)CCCCN)NC(=O)[C@H](Cc1ccccc1)NC(=O)[C@@H](N)CCCCN)NC(=O)[C@H](Cc1ccccc1)NC(=O)[C@H](CCCCN)NC(=O)[C@H](CCCCNC(=O)[C@H](Cc1ccccc1)NC(=O)[C@H](CCCCN)NC(=O)[C@H](CCCCNC(=O)[C@H](Cc1ccccc1)NC(=O)[C@@H](N)CCCCN)NC(=O)[C@H](Cc1ccccc1)NC(=O)[C@@H](N)CCCCN)NC(=O)[C@H](Cc1ccccc1)NC(=O)[C@H](CCCCN)NC(=O)[C@H](CCCCNC(=O)[C@H](Cc1ccccc1)NC(=O)[C@@H](N)CCCCN)NC(=O)[C@H](Cc1ccccc1)NC(=O)[C@@H](N)CCCCN)C(=O)N[C@@H](Cc1ccccc1)C(N)=O` [MSt-174, (KF)8(KKF)4(KKF)2(KKF)] (I: H-KFK([Phe-Lys])KFKKFKKF-NH2 / II: H-KFK([Phe-Lys])KFKKF / III: H-KFK([Phe-Lys])KF / IV: H-KFK([Phe-Lys])KF; amide I:6-IV:C, I:9-II:C, II:6-III:C), for which the “MIC P. aeruginosa PAO1” value in test [1] turned out to be 6 µg/mL (≈ 1.19 µM). For the same compound, the “MIC B. subtilis BR151” value in test [2] was 2 µg/mL (≈ 0.396 µM). Also, the “MIC E. coli DH5α” value in test [3] amounted to 7 µg/mL (≈ 1.39 µM).
The like results for `CCCCCCCC(=O)NCCCC[C@H](NC(=O)[C@H](CC(C)C)NC(=O)[C@H](CCCCN)NC(=O)[C@H](CCCCNC(=O)[C@H](CC(C)C)NC(=O)[C@H](CCCCN)NC(=O)[C@H](CCCCNC(=O)[C@H](CC(C)C)NC(=O)[C@H](CCCCN)NC(=O)[C@H](CCCCNC(=O)[C@H](CC(C)C)NC(=O)[C@@H](N)CCCCN)NC(=O)[C@H](CC(C)C)NC(=O)[C@@H](N)CCCCN)NC(=O)[C@H](CC(C)C)NC(=O)[C@H](CCCCN)NC(=O)[C@H](CCCCNC(=O)[C@H](CC(C)C)NC(=O)[C@@H](N)CCCCN)NC(=O)[C@H](CC(C)C)NC(=O)[C@@H](N)CCCCN)NC(=O)[C@H](CC(C)C)NC(=O)[C@H](CCCCN)NC(=O)[C@H](CCCCNC(=O)[C@H](CC(C)C)NC(=O)[C@H](CCCCN)NC(=O)[C@H](CCCCNC(=O)[C@H](CC(C)C)NC(=O)[C@@H](N)CCCCN)NC(=O)[C@H](CC(C)C)NC(=O)[C@@H](N)CCCCN)NC(=O)[C@H](CC(C)C)NC(=O)[C@H](CCCCN)NC(=O)[C@H](CCCCNC(=O)[C@H](CC(C)C)NC(=O)[C@@H](N)CCCCN)NC(=O)[C@H](CC(C)C)NC(=O)[C@@H](N)CCCCN)C(N)=O` [MSt-265, (KL)8(KKL)4(KKL)2(KKLKC8)] (I: H-KLK([Leu-Lys])KLKKLKKLK(Octanoyl)-NH2 / II: H-KLK([Leu-Lys])KLKKL / III: H-KLK([Leu-Lys])KL / IV: H-KLK([Leu-Lys])KL; amide I:6-IV:C, I:9-II:C, II:6-III:C) were, in that order, 1 µg/mL (≈ 0.209 µM), 4 µg/mL (≈ 0.835 µM) and 1 µg/mL (≈ 0.209 µM).
